Results taken from ChEMBL document CHEMBL1132242, “Stereoselective characterization of the 1,4-dihydropyridine binding site at L-type calcium channels in the resting state and the opened/inactivated state” (J Med Chem, 1999).
Where “and” joins values, the source holds several entries; their conditions need not be identical. Equal entries are not always repeated.

Tests used:
[1] = target: T1, Voltage-gated L-type calcium channel (Homo sapiens, UniProt Q13936+Q13698+Q01668+O60840); test: Evaluated for the free energies of binding (delta G) (in the resting state (rs) of voltage-gated L-type [Ca2+] channel (VGCCs)); format: protein assay
[2] = target: T1, Voltage-gated L-type calcium channel; test: Free energy of binding (delta G) for inactivated state (is) of voltage-gated L-type [Ca2+] channel(VGCCs); format: protein assay
[3] = target: T1, Voltage-gated L-type calcium channel; test: Difference in free energies of binding (delta G) in the Resting state (rs) and inactivated state (is) of voltage-gated L-type [Ca2+] channel(VGCCs); format: protein assay
[4] = target: T1, Voltage-gated L-type calcium channel; test: Free energies of binding(delta G)in inactivated state (is) of voltage-gated L-type [Ca2+] channel(VGCCs); format: protein assay
[5] = target: T1, Voltage-gated L-type calcium channel; test: Free energies of binding (delta G) in the Resting state (rs) of voltage-gated L-type [Ca2+] channel(VGCCs); format: protein assay

Row | Structure (SMILES) | Binding energy [1] | Binding energy [2] | Delta Gsolv | Binding energy [3] | Binding energy [4] | Binding energy [5]
1 | COC(=O)C1=C(C)N=C(C)/C(=C(\O)OC)C1c1cccc(C)c1 (stereo not drawn) | -9.93 kcal/M | – | -8.407 kcal/mol | – | – | –
2 | COC(=O)C1=C(C)N=C(C)/C(=C(\O)OC)C1c1c(F)c(F)c(F)c(F)c1F (stereo not drawn) | -14.145 kcal/M | – | -9.442 kcal/mol | – | – | –
3 | COC(=O)C1=C(C)N=C(C)/C(=C(\O)OC)C1c1ccc(C)cc1 (stereo not drawn) | -9.79 kcal/M | – | -8.19 kcal/mol | – | – | –
4 | COC(=O)C1=C(C)N=C(C)/C(=C(\O)OC)C1c1cccc(F)c1 (stereo not drawn) | -11.58 kcal/M | – | -9.56 kcal/mol | – | – | –
5 | COC(=O)C1=C(C)N=C(C)/C(=C(\O)OC)C1c1ccccc1I (stereo not drawn) | -14.731 kcal/M | – | -9.18 kcal/mol | – | – | –
6 | COC(=O)C1=C(C)N=C(C)/C(=C(\O)OC)C1c1ccc(F)cc1 (stereo not drawn) | -10.175 kcal/M | – | -9.427 kcal/mol | – | – | –
7 | COC(=O)C1=C(C)N=C(C)/C(=C(/O)OC)C1c1cccc(Cl)c1 (stereo not drawn) | -12.685 kcal/M | – | -8.94 kcal/mol | – | – | –
8 | COC(=O)C1=C(C)N=C(C)/C(=C(\O)OC)C1c1cccc(C#N)c1 (stereo in doubt; form 1) | -9.71 kcal/M | -12.108 kcal/M | -10.743 kcal/mol | – | – | –
9 | COC(=O)C1=C(C)N=C(C)/C(=C(\O)OC)C1c1cccc(OC)c1 (stereo in doubt; form 1) | -9.916 kcal/M | – | -9.847 kcal/mol | – | – | –
10 | COC(=O)C1=C(C)N=C(C)/C(=C(\O)OC)C1c1ccc(Cl)cc1 (stereo in doubt; form 1) | -8.209 kcal/M | -8.964 kcal/M | -9.2 kcal/mol | – | – | –
11 | COC(=O)C1=C(C)N=C(C)/C(=C(\O)OC)C1c1cccc(C#N)c1 (stereo in doubt; form 2) | -11.84 kcal/M | – | -10.65 kcal/mol | – | – | –
12 | COC(=O)C1=C(C)N=C(C)/C(=C(\O)OC)C1c1cccc(OC)c1 (stereo in doubt; form 2) | -7.819 kcal/M | -8.461 kcal/M | -9.756 kcal/mol | – | – | –
13 | COC(=O)C1=C(C)N=C(C)/C(=C(\O)OC)C1c1ccc(Cl)cc1 (stereo in doubt; form 2) | -7.666 kcal/M | – | -8.79 kcal/mol | – | – | –
14 | COC(=O)C1=C(C)NC(C)=C(C(=O)OC)C1c1ccccc1[N+](=O)[O-] [NIFEDIPINE] | -12.385 kcal/M | -13.184 kcal/M | -14.117 kcal/mol and -14.198 kcal/mol | – | – | -10.502 kcal/M

More lines, main results first:

Row | Binding energy [1] | Binding energy [2] | Delta Gsolv | Binding energy [3] | Binding energy [4] | Structure (SMILES) | Binding energy [5]
15 | -8.58 kcal/M and -10.707 kcal/M | -10.387 kcal/M | -8.706 kcal/mol and -9.458 kcal/mol | – | – | COC(=O)C1=C(C)NC(C)=C(C(=O)OC)C1c1ccccc1 | –
16 | -12.522 kcal/M | – | -9.74 kcal/mol | – | – | COC(=O)C1=C(C)N=C(C)/C(=C(\O)OC)C1c1ccccc1C#N (stereo not drawn) | –
17 | -10.735 kcal/M | – | -10.468 kcal/mol | – | – | COC(=O)C1=C(C)N=C(C)/C(=C(\O)OC)C1c1ccccc1OC (stereo not drawn) | –
18 | -9.571 kcal/M | -10.474 kcal/M | -14.696 kcal/mol | – | – | COC(=O)C1=C(C)NC(C)=C([N+](=O)[O-])C1c1ccccc1OC(F)F (stereo not drawn) | –
19 | -11.512 kcal/M | – | -9.804 kcal/mol | – | – | COC(=O)C1=C(C)N=C(C)/C(=C(\O)OC)C1c1ccccc1F (stereo not drawn) | –
20 | -11.88 kcal/M | – | -7.993 kcal/mol | – | – | COC(=O)C1=C(C)N=C(C)/C(=C(\O)OC)C1c1ccccc1C (stereo not drawn) | –
21 | -13.34 kcal/M | – | -9.26 kcal/mol | – | – | COC(=O)C1=C(C)N=C(C)/C(=C(\O)OC)C1c1ccccc1Cl (stereo not drawn) | –
22 | -14.308 kcal/M | – | -9.256 kcal/mol | – | – | COC(=O)C1=C(C)N=C(C)/C(=C(\O)OC)C1c1ccccc1Br (stereo not drawn) | –
23 | -9.26 kcal/M | -10.564 kcal/M | -14.543 kcal/mol | – | – | CO/C(O)=C1\C(C)=NC(C)=C([N+](=O)[O-])C1c1ccccc1OC(F)F (stereo not drawn) | –
24 | -8.256 kcal/M | -9.11 kcal/M | -17.275 kcal/mol | -0.85 kcal/M | – | CC1=C([N+](=O)[O-])C(c2ccccc2C(F)(F)F)C([N+](=O)[O-])=C(C)N1 | –
25 | -7.82 kcal/M | -8.66 kcal/M | -16.994 kcal/mol | – | – | CC1=C([N+](=O)[O-])C(c2ccccc2OC(F)F)C([N+](=O)[O-])=C(C)N1 | –
26 | -8.8 kcal/M | -10.296 kcal/M | -13.929 kcal/mol | -1.5 kcal/M | – | COC(=O)C1=C(C)NC(C)=C([N+](=O)[O-])C1c1ccccc1C(F)(F)F (stereo in doubt; form 1) | –
27 | -6.967 kcal/M | – | -10.313 kcal/mol | -0.66 kcal/M | -7.634 kcal/M | CC1=CC(c2ccccc2C(F)(F)F)C([N+](=O)[O-])=C(C)N1 (stereo in doubt; form 1) | –
28 | -7.422 kcal/M | -7.783 kcal/M | -11.269 kcal/mol | – | – | CC1=CC(c2ccccc2OC(F)F)C([N+](=O)[O-])=C(C)N1 (stereo in doubt; form 1) | –
29 | -9.7 kcal/M | -10.641 kcal/M | -14.15 kcal/mol | -0.94 kcal/M | – | COC(=O)C1=C(C)NC(C)=C([N+](=O)[O-])C1c1ccccc1C(F)(F)F (stereo in doubt; form 2) | –
30 | -7.36 kcal/mol | -7.74 kcal/M | -10.33 kcal/mol | -0.38 kcal/M | – | CC1=CC(c2ccccc2C(F)(F)F)C([N+](=O)[O-])=C(C)N1 (stereo in doubt; form 2) | –
31 | -7.86 kcal/M | -8.28 kcal/M | -10.096 kcal/mol | – | – | CC1=CC(c2ccccc2OC(F)F)C([N+](=O)[O-])=C(C)N1 (stereo in doubt; form 2) | –
